Test [1] relates to LldD L-lactate dehydrogenase. The following applies: read-out: KM_app; DCPIP 0.1 mM electron acceptor, PMS 0.25 mM, MgCl2 2 mM, phosphate pH 7.4, 37 °C.
A further test relates to T1, LdhA.
T1 construct: native soluble enzyme in cell-free extract of Hi2019; not purified; no tag
In words: NADH oxidation at […] nm, cell-free extract. Format: cell-based, Haemophilus influenzae. To be noted: Tris-Cl pH 7.5, 37 °C.

As for `C[C@H](O)C(=O)O` [L-lactate], the Km in test [1] was determined as 300 ± 30 µM.
For `NC(=O)C1=CN([C@@H]2O[C@H](COP(=O)(O)OP(=O)(O)OC[C@H]3O[C@@H](n4cnc5c(N)ncnc54)[C@H](O)[C@@H]3O)[C@@H](O)[C@H]2O)C=CC1` [NADH], the Km with LdhA (pyruvate co-substrate (std. 10 mM)) turned out to be 55 ± 3 µM.
Take `CC(=O)C(=O)O` [pyruvate]: the Km in the test with LdhA (NADH co-substrate) was 3380 ± 840 µM.

(Values after article PMC8794153, “Access to highly specialized growth substrates and production of epithelial immunomodulatory metabolites determine survival of Haemophilus influenzae in human airway epithelial cells” (PLoS Pathogens, 2022).)
